Data as given in patent publication US20050054103A1, “Expansion of renewable stem cell populations using modulators of PI 3-kinase” (priority 2003, published 2005).

What was measured:
CD34+ cells = assay: Ex-vivo expansion of CD34+ cell enriched cultures with RAR antagonist, cell counts and FACS surface antigen analysis; assay type: cell-based, human; settings: for No. of cells (× 10^4): 2 weeks after seeding; for No. of CD34+ cells: RAR antagonist 10^−5 M for one week only
Procedure: Human blood cells were obtained from umbilical cord blood from female patients following full-term, normal delivery (informed consent was obtained). Samples were collected and processed within 12 hours postpartum. Blood was mixed with 3% Gelatin (Sigma, St. Louis, Mo.), sedimented for 30 minutes to remove most red blood cells. […] The mononuclear cell fraction in the interface layer was collected, washed three times and resuspended in phosphate-buffered saline (PBS) solution (Biological Industries) containing 0.5% bovine serum albumin (BSA, Fraction V; Sigma).
To purify CD34^+ mononuclear cells, the fraction was subjected to two cycles of immuno-magnetic separation using the MiniMACS® or Clinimax® CD34 Progenitor Cell Isolation Kit (Miltenyi Biotec, Auburn, Calif.) as per manufacturer's recommendations.
CD34^+ expressing purified cells above were cultured in 24-well Costar Cell Culture Clusters (Coming Inc., Corning, N.Y.) or culture bags (American Fluoroseal Corp), at a concentration of 10^4 cells/ml in alpha medium (Biological Industries, Beit Haemek, Israel) supplemented with 10% fetal bovine serum (FBS, Biological Industries). The following human recombinant cytokines were added: Thrombopoietin (TPO), interleukin-6 (IL-6), FLT-3 ligand and stem cell factor (SCF), all at final concentrations of 50 ng/ml each, though occasionally IL-3, at a concentration of 20 ng/ml, was added either together or instead of SCF. For non-hematopoietic cell differentiation, FGF, EGF, NGF, VEGF, LIF or Hepatocyte growth factor (HGF) were used to supplement the growth medium, either alone or in various combinations. All cytokines used were purchased from Perpo Tech, Inc. (Rocky Hill, N.J.). The cultures were incubated at 37° C., 5% CO2, in a humidified atmosphere.
At weekly intervals, cell cultures were toped and semi-depopulated and were supplemented with fresh medium, serum and cytokines or supplemented with fresh growth medium, alone. At predetermined time points, cells were harvested, stained with trypan blue, counted, and cell morphology was determined via the use of cytospin (Shandon, UK)-prepared smears stained with May-Grunwald/Giemsa solutions.
CD34^+ purified and whole MNC cultures were prepared and maintained as described above. […] The antagonist was added for a predetermined, limited period, for up to three weeks or continuously during the entire culture period.
Cells were harvested, washed with a PBS solution containing 1% bovine sera albumin (BSA) and 0.1% sodium azide (Sigma), and stained at 4° C. for 60 minutes with fluorescein isothiocyanate or phycoerythrin-conjugated antibodies (all from Immunoquality Products, the Netherlands). The cells were then washed with the same buffer and analyzed by FACS caliber or Facstarplus flow cytometers. Cells were passed at a rate of 1000 cells/second, using saline as the sheath fluid. A 488 nm argon laser beam served as the light source for excitation. Emission of ten thousand cells was measured using logarithmic amplification, and analyzed using CellQuest software. Negative control staining of cells was accomplished with mouse IgG-PE (Dako A/S Glostrup, Denmark) and mouse IgG-FITC (BD Biosciences, Erembodegem, Belgium).
CD34 surface expression on short and long-term cultures initiated either with purified CD34^+ cells or the entire MNC fraction was determined as follows: CD34^+ cells were positively reselected (Miltenyi kit) and counted. Purity was confirmed by subsequent FACS and cell morphology analysis.
Reselected CD34^+ cell subsets were stained for the following combination of antigens: CD34PE/CD38FITC and CD34PE/38, 33, 14, 15, 3, 4, 61, 19 (Lin) FITC. The fraction positive for CD34 and negative for CD38 was defined as CD34^+CD38^−. The fraction positive for CD34 and negative for LIN was defined as CD34^+Lin^− cell fraction.
FACS analysis results are given as percentage values of cells. Absolute numbers of subsets are calculated from the absolute number of CD34^+ cells.

HL-60 cells = assay: Copper determination in chelator treated cells (atomic absorption); assay type: cell-based, human
Procedure: Copper Determination: Cells were harvested by centrifugation at 1000×g for 5 minutes. The cell pellet was washed three times by re-suspending the cells in PBS (Ca^++ and Mg^++ free) and centrifugation at 1000×g. An aliquot containing 2×10^6 cells was then transferred into a metal-free Eppendorf tube and the cells were recovered by centrifugation at 1000×g. The cell pellet was re-suspended in 0.03 M ultra-pure nitric acid to give a concentration of 1×10^7 cells/ml. The cells were homogenized with a high shear mixer (polytron, Kinematica, Switzerland) for 1 minutes to disrupt the cell and release intracellular copper content. Cell samples were vortexed before transferring to a vial autosampler and analyzed in duplicate by a Perkin Elmer graphite furnace atomic absorption spectrophotometer at a wavelength of 324.7 nm. The samples were analyzed against copper standard solution prepared from a commercial stock solution that was diluted with 0.03 M ultra pure nitric acid.
FIG. 44 provides the chemical structure of the various chelators employed in these experiments.

Cord blood-derived cells = assay: Storage and separation of cord blood cells in the presence of TEPA, then long-term culture; assay type: cell-based; settings: cells stored 24 hours at 4° C. and separated with 10 μM TEPA
Procedure: Cord blood-derived cells were collected and stored (unseparated) for 24 hours, at 4° C., either in the presence or absence of 10 μM TEPA. CD34^+ cells were then separated using either 10 μM TEPA-PBS buffer or TEPA free PBS buffer, respectively. Then, cells were grown in long-term cultures in the presence of 10 μM TEPA.

[1] = RAR antagonist 10^−5 M, 2 weeks
[2] = RAR antagonist 10^−6 M, 2 weeks
[3] = reselected CD34+ cells after two weeks in culture

Structure (SMILES): CCc1ccc(C2=CC(C)(C)Sc3ccc(C#Cc4ccc(C(=O)O)cc4)cc32)cc1 [AGN 194310]
- cell proliferation enabled until (post initial seeding) (CD34+ cells; AGN194310 10^−7 M): ≤ 11 weeks
- expression of the CD38 antigen (CD34+ cells; FACS, 2 weeks): completely abolished
- No. of cells (× 10^4) (CD34+ cells; RAR antagonist 10^−5 M + 4 cytokines): 42 × 10^4
- No. of CD34+ cells (CD34+ cells; week 13): 10322
- No. of CD34+ cells (CD34+ cells; week 20): 0
- % 34^+/38^−cells (CD34+ cells; [1]): 17.14%
- % 34^+/Lin^−cells (CD34+ cells; [1]): 15.18%
- % 34^+cells (CD34+ cells; [1]): 18.94%
- No. of cells (× 10^4) (CD34+ cells; RAR antagonist 10^−6 M + 4 cytokines): 52 × 10^4
- % 34^+/38^−cells (CD34+ cells; [2]): 17.16%
- % 34^+/Lin^−cells (CD34+ cells; [2]): 11.91%
- % 34^+cells (CD34+ cells; [2]): 19.59%
- increase in CD34+ expression between week three to eleven (CD34+ cells; RAR antagonist first three weeks only, then eight weeks without): 92 fold
- CD34^+Lin^− expansion (CD34+ cells; after two weeks in culture, CD34+ re-selected fraction): 530 fold
- increase in CD34^+CD38^− surface expression (CD34+ cells; [3]): 1000 fold
- increase in CD34^+Lin^− surface expression (CD34+ cells; [3]): 500 fold
- expansion of CD34+ compartment since the initiation of the cultures (CD34+ cells; week 11, RAR antagonist first three weeks only): 1621 fold
- increase in CD34^+Lin^− expression (CD34+ cells; week eleven, 9 weeks after termination of antagonist treatment): 16,700 fold

Structure (SMILES): NCCNCCNCCNCCN [TEPA, tetraethylenepentamine]
- Average Intracellular ppb Cu (HL-60 cells; 20 μM chelator): 31.5 ppb
- Average Intracellular ppb Cu (HL-60 cells; 100 μM chelator): 24.1 ppb
- Average Intracellular ppb Cu (HL-60 cells; 500 μM chelator): 17.1 ppb
- activity at 20 µM (HL-60 cells; Homo sapiens, HL-60, 20 μM chelator, read-out: Average Intracellular Cu (% of control)): 64%
- activity at 100 µM (HL-60 cells; Homo sapiens, HL-60, 100 μM chelator, read-out: Average Intracellular Cu (% of control)): 49%
- activity at 500 µM (HL-60 cells; Homo sapiens, HL-60, 500 μM chelator, read-out: Average Intracellular Cu (% of control)): 35%
- duration of expansion of long-term cultures (Cord blood-derived cells): 8 weeks
